According to patent publication US9102620B2, “Deuterated N-ethyl-N-phenyl-1,2-dihydro-4-hydroxy-5-chloro-1-methyl-2-oxoquinoline-3-carboxamide, salts and uses thereof” (TEVA PHARMACEUTICAL INDUSTRIES, LTD., priority 2010, dated 2015):
Where “and” joins values, the source holds several entries; their conditions need not be identical. Identical values can stand only once. Like-named read-outs stand apart in the source and are kept apart here.

Columns and labels:
[1] = Pharmacokinetic profile in rat plasma following oral administration; format: in vivo
Procedure: The main objectives of this example were: • Quantification of Compound 1, Compound 2, Compound 3 and Laquinimod in rat plasma using LC/MS/MS bioanalytical method. • Characterization of the pharmacokinetic profile of Compound 1, Compound 2, Compound 3 and Laquinimod following oral (PO) administration at a dose of 0.2 mg/kg. • The measurement DELAQ concentrations in the collected plasma samples. Rats cannulated at the right common jugular vein by polyethylene tubing were used. In the in-life part, three cannulated female rats were treated with each of the four test articles at dose of 0.2 mg/kg. Blood was withdrawn from the rats at five different time points for the preparation of plasma. The concentrations of Compound 1, Compound 2, Compound 3, laquinimod, and DELAQ were determined in these plasma samples, using applicable LC/MS/MS methods. Oral administration was performed by oral gavage at a dosage volume of 5 ml/kg using a blunt feeding stainless steel needle (Popper & Sons, USA). Body weights were measured before dose administration and doses were calculated on the basis of individual body weight. Blood were withdrawn from animals at the following time points: 1, 2, 4, 8 and 24 hours after dosing as detailed in the table below. The actual sampling time were recorded. Each animal was restrained firmly. After the removal of the seal the port of the cannula was accessed with an appropriate blunted needle mounted on a syringe containing PBS. After having withdrawn approximately 100 μL of blood, the syringe was changed to a clean heparinized syringe. Approximately 250 μL of blood was collected for the preparation of plasma. The first 100 μL fraction of blood was returned and 250 μL of PBS was given to the animal through the catheter. The catheter was filled by heparinized glycerol (100 IU/ml) solution prepared by mixing 10 ml stock heparin (200 IU/ml) with 10 ml of sterile glycerol (d=1.26 g/mL). Blood specimens were mixed immediately and were placed on water ice. Whole blood was centrifuged at 2500 g for 10 min at 4° C., and the separated plasma was transferred into pre-labeled polypropylene tubes and the tubes were frozen at −70° C. within 70 minutes of collection. The concentrations of test items (Compound 1, Compound 2, Compound 3 and Laquinimod) and the concentration of DELAQ were determined in the plasma samples by using reliable LC/MS/MS assay. Pharmacokinetic parameters were calculated and the mean plasma levels versus time curves were evaluated. The following pharmacokinetic parameters were determined from the mean plasma concentration-time data (mean of three animals at each time point) of Compound 1, Compound 2, Compound 3 and Laquinimod.

MOG induced EAE = MOG induced EAE in C57BL/6 mice; format: in vivo; settings: 10 mg/kg orally, daily; for Mortality: Day 0 to Day 30; for % inhibition 1 (according to incidence) / % inhibition 2 (according to MMS) / % inhibition 3 (according to GMS): compared to vehicle; for Incidence: sick mice/group
CYP1A2 = settings: human, 3 days; for Enzyme activity, Phenacetin O-dealkylation (CYP1A2) / Percent positive control, Phenacetin O-dealkylation (CYP1A2) activity: hepatocytes
Procedure: (§1) After treatment, the cells were incubated in situ with marker substrates for the analysis of phenacetin O-dealkylation (marker for CYP1A2) and midazolam 1′-hydroxylation (marker for CYP3A4/5) by LC/MS/MS.
Incubations of hepatocytes with probe substrates were conducted in accordance with SOP L5041.02. Approximately 24 hours after the last treatment, spent media was aspirated from the wells, and each well was rinsed two times with pre-warmed (37±2° C.) fresh culture media. Media was aspirated from the wells and reactions were started by addition of 200 μL pre-warmed media containing the probe substrate to each well. […] At 30 minutes, an aliquot (150 μL) of the incubation mixture was removed and added to a well of a 96-well plate containing 300 μL of stop reagent (acetonitrile) and internal standard (Table 2). The mixtures were mixed thoroughly and allowed to sit for at least 15 minutes at 2-8° C. Samples were centrifuged at 2000×g for 10 minutes at 2-8° C., and supernatant fractions were analyzed by LC/MS/MS.
All analyses were performed with validated LC/MS/MS methods. The procedures used for the analysis of each metabolite followed the applicable LC/MS/MS analytical method SOPs and are summarized in Table 2. The MS equipment was either an ABI Sciex (Applied Biosystems/MDS SCIEX) API 4000 or API 3000 instrument with Shimadzu HPLC pumps and autosampler systems.
Individual rates of reaction from like treatment groups were averaged, and for those groups with n≧3, standard deviations were determined. Fold increases were determined by dividing the enzymatic rate for each treatment group by that of the vehicle control. Percent positive control was calculated with the following equation: […]

CYP1A2 mRNA = settings: human, 3 days
Procedure: as §1
Approximately 24 hours after the last treatment, hepatocytes were lysed in TRIzol reagent after the in situ marker substrate incubations, and cell lysates were stored at −75±5° C. For human hepatocyte preparation H971, media from six wells per treatment group was aspirated, and approximately 132 μL TRIzol were added to each well. The cell lysates were mixed by repeated pipetting. Total RNA was isolated from the cell lysates using the TRIzol protocol (Invitrogen) and was purified using the RNeasy Mini Kit (Qiagen Inc.) according to SOP L6161.02. RNA quality and concentration were determined by measuring absorbance at 260 and 280 nm on a BioTek Synergy HT plate reader (BioTek Instruments, Inc.) with KC4 Signature software (version 3.4 Rev 21, BioTek Instruments, Inc.) according to SOP L6162.02. The analysis of RNA integrity was carried out with the RNA 6000 Nano Assay Kit on an Agilent 2100 Bioanalyzer (Agilent Technologies, Inc.) according to SOP L6162.02. Single-stranded cDNA was prepared from RNA with the RT Master Mix using the AB 7300 Real Time PCR system thermocycling program or AB 7900HT Fast Real Time PCR System thermocycling program (Applied Biosystems) according to SOP L6160.04. […] The RT Master Mix was added to each RNA sample to complete the components of the reaction. No template controls (NTCs) were included in the analysis. For the NTC reactions, RNase-free water was added in place of the RNA sample. The cDNA prepared samples were stored at −20±5° C. prior to analysis by qRT-PCR.
Quantitative RT-PCR was carried out according to SOP L6160.04 (XenoTech, LLC) and the Applied Biosystems protocol. Each PCR was performed in triplicate. A Primer Mix was prepared for each Gene Expression assay. A typical Primer Mix contained TaqMan Universal Master Mix (1×), Gene Expression Assay (1×, 900 nM forward and reverse primers) and RNase-free water. The Reaction Mix was prepared by adding the Primer Mix to cDNA. A percentage of samples (no less than 10%) included NACs. […] The relative quantity of the target cDNA compared with that of the control cDNA (GAPDH) was determined by the ΔΔCt method (Applied Biosystems User Bulletin #2). Relative quantification measures the change in mRNA expression in a test sample relative to that in a control sample (e.g., DMSO). This method assumes that the efficiency of the target amplification and the efficiency of the endogenous control amplification are approximately equal.
For qRT-PCR, data were processed using the Sequence Detection System (SDS) Software version 1.4, for Relative Quantification (Applied Biosystems). This software analyzes relative gene expression using the comparative Ct method (ΔΔCt), which relates the PCR signal of the target transcript to the PCR signal of the target in an untreated control. Both the treated sample and the untreated control signals are normalized to the endogenous control (GAPDH), for which expression is not affected by treatment and expression is constant throughout the tissue being tested. […] Calculations are as follows: ΔCt=Ct(target)−Ct(endogenous control) 1. ΔΔCt=ΔCt(treated sample)−ΔCt(untreated control) 2. Fold change in expression=2−ΔΔCt 3.
The level of mRNA expression relative to the positive control was calculated as follows: […]

[2] = female, rat, po, 0.2 mg/kg, Average of rats
[3] = female, rat, po, 0.2 mg/kg, Average of rats, read-out: Cmax
[4] = female, rat, po, 0.2 mg/kg, Average of rats, read-out: Tmax
[5] = female, rat, po, 0.2 mg/kg, individual rats
[6] = female, rat, po, 0.2 mg/kg, individual rats, read-out: Cmax
[7] = female, rat, po, 0.2 mg/kg, individual rats, read-out: Tmax
[8] = individual rats, oral 0.2 mg/kg

| SMILES | AUC(0-inf) [1, 2] [ng·h/mL] | AUC(0-t) [1, 2] [ng·h/mL] | half-life [1, 2] [h] | Cmax [1, 3] [ng/mL] | Tmax [1, 4] [h] | AUC(0-inf) [1, 5] [ng·h/mL] | half-life [1, 5] [h] | Cmax [1, 6] [ng/mL] | Tmax [1, 7] [h] | AUCinf [1, 8] | AUClast [1, 8] | Cmax [1, 8] | T1/2 [1, 8] | Tmax [1, 8] [h] | GMS value (group mean score) (MOG induced EAE) | MMS value (mean maximal score) (MOG induced EAE) | Mean Duration (MOG induced EAE) [days] | Mean Onset (MOG induced EAE) [days] | activity in inhibition of EAE clinical signs compared to laquinimod (MOG induced EAE) | Mortality (MOG induced EAE) | also measured |
| --- | --- | --- | --- | --- | --- | --- | --- | --- | --- | --- | --- | --- | --- | --- | --- | --- | --- | --- | --- | --- | --- |
| [2H]c1c([2H])c([2H])c(N(CC)C(=O)c2c(O)c3c(Cl)cccc3n(C)c2=O)c([2H])c1[2H] [Compound 1, N-ethyl-N-D5-phenyl-1,2-dihydro-4-hydroxy-5-chloro-1-methyl-2-oxoquinoline-3-carboxamide] | 13800 | 10400 | 11.3 | 774 | 1.8 | 19300 | 13.4 | 945 | 1 | 13617.9 ng·h/mL and 9733.8 ng·h/mL and 12447.9 ng·h/mL | 10011.7 ng·h/mL and 8039.3 ng·h/mL and 10061.6 ng·h/mL | 730.7 ng/mL and 611.9 ng/mL and 809.5 ng/mL | 12.1 h and 9.5 h and 10.0 h | 2.0 | 0.74 ± 0.86 | 1.5 ± 1.7 | 7.9 ± 8.2 | 22.1 ± 8.9 | no significant difference in activity | 0/15 | AUC(0-t) [1, 5]: 13700 ng·h/mL; % inhibition 1 (according to incidence) (MOG induced EAE): 42.9%; % inhibition 2 (according to MMS) (MOG induced EAE): 53.1%; % inhibition 3 (according to GMS) (MOG induced EAE): 66.5%; Incidence (MOG induced EAE): 8/15 |
| [2H]c1c([2H])c([2H])c(N(C(=O)c2c(O)c3c(Cl)cccc3n(C)c2=O)C([2H])([2H])C([2H])([2H])[2H])c([2H])c1[2H] [Compound 3, N-D5-ethyl-N-D5-phenyl-1,2-dihydro-4-hydroxy-5-chloro-1-methyl-2-oxoquinoline-3-carboxamide] | 15800 | 10500 | 12.4 | 835 | 1.4 | 15800 | 11.5 | 908 | 1 | 18246.2 ng·h/mL and 15225.2 ng·h/mL and 14845.1 ng·h/mL and 14643.7 ng·h/mL | 12110.0 ng·h/mL and 12471.5 ng·h/mL and 11280.4 ng·h/mL and 5317.8 ng·h/mL and 11156.0 ng·h/mL | 800.4 ng/mL and 728.9 ng/mL and 833.2 ng/mL and 904.3 ng/mL | 14.4 h and 12.7 h and 12.0 h and 11.6 h | 2.0 | 0.89 ± 0.94 | 1.6 ± 1.6 | 9.6 ± 9.4 | 21.5 ± 9.3 | no significant difference in activity | 0/15 | % inhibition 1 (according to incidence) (MOG induced EAE): 28.6%; % inhibition 2 (according to MMS) (MOG induced EAE): 50.1%; % inhibition 3 (according to GMS) (MOG induced EAE): 59.7%; Incidence (MOG induced EAE): 10/15 |
| COCC(=O)O[C@]1(CCN(C)CCCc2nc3ccccc3[nH]2)CCc2cc(F)ccc2[C@@H]1C(C)C [Mibefradil] |  |  |  |  |  |  |  |  |  |  |  |  |  |  |  |  |  |  |  |  | Fold Increase, Phenacetin O-dealkylation (CYP1A2) activity (CYP1A2; 10 μM): 3.76 fold; Enzyme activity, Phenacetin O-dealkylation (CYP1A2) (CYP1A2; 10 μM): 11.3 ± 2.1 pmol/mg protein/min; Percent positive control, Phenacetin O-dealkylation (CYP1A2) activity (CYP1A2; 10 μM): 10.1%; mRNA Fold increase, CYP1A2 (CYP1A2 mRNA; 10 μM): 0.423 fold; decrease in CYP1A2 mRNA levels compared to vehicle control (CYP1A2 mRNA; hepatocytes, 10 μM): 57.7%; mRNA Percent positive control, CYP1A2 (CYP1A2 mRNA; hepatocytes, 10 μM): −7.61% |
| COc1ccc2[nH]c([S+]([O-])Cc3ncc(C)c(OC)c3C)nc2c1 (centres unmarked) [Omeprazole] |  |  |  |  |  |  |  |  |  |  |  |  |  |  |  |  |  |  |  |  | Enzyme activity, Phenacetin O-dealkylation (CYP1A2) (CYP1A2; 100 μM): 84.9 ± 5.4 pmol/mg protein/min; Percent positive control, Phenacetin O-dealkylation (CYP1A2) activity (CYP1A2; 100 μM): 100%; mRNA Fold increase, CYP1A2 (CYP1A2 mRNA; 100 μM): 8.58 fold; mRNA Percent positive control, CYP1A2 (CYP1A2 mRNA; hepatocytes, 100 μM): 100% |
